Source: US10710980B2, “Aminopyridine derivatives and their use as selective ALK-2 inhibitors” (priority 2016, dated 2020)

Legend:
[1] = test system: BMP response element (BRE) luciferase reporter in HuH7 cells, BMP6 stimulated; assay: BMP signaling reporter gene assay; format: cell-based; settings: Homo sapiens, Huh-7; HuH7 BRE-luciferase, BMP6 100 ng/ml, 5 hours; read-out: MSD BMP RGA IC50
ALK3 (aa198-525) = ALK3 (aa198-525) (Homo sapiens (Human), UniProt P36894); assay: ADPGlo biochemical autophosphorylation assay, ALK3; settings: 15 μm ATP, 60 min at 32° C.
Sequence of ALK3 (aa198-525) (P36894 198-525): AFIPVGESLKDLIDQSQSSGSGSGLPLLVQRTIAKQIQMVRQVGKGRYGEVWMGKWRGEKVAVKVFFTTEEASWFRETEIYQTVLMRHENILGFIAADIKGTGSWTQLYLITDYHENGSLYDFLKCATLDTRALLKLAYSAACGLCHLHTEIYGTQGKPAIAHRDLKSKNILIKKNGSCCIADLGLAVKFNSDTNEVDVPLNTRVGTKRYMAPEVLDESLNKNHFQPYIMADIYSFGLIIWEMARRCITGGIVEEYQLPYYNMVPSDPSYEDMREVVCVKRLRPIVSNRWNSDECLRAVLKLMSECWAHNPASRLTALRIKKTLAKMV

ALK1 (aa166-493) = ALK1 (aa166-493) (Homo sapiens (Human), UniProt P37023); assay: Caliper biochemical peptide phosphorylation assay, ALK1; settings: 15 μm ATP, 60 min at 30° C.; read-out: ALK1 EPK (IC50)
Sequence of ALK1 (aa166-493) (P37023 166-493): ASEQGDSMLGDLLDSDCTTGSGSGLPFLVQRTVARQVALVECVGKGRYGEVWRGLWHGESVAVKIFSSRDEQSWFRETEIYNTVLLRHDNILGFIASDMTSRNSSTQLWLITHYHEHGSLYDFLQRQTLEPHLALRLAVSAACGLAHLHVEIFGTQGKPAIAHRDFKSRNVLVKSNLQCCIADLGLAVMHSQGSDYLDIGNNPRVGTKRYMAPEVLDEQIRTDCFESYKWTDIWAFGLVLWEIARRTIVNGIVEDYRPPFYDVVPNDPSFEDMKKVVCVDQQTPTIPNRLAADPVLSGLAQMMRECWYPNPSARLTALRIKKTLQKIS

[2] = biological target: T1, wild-type ALK2 (aa172-499) (Homo sapiens (Human), UniProt Q04771); assay: Caliper biochemical peptide phosphorylation assay, ALK2; settings: 15 μm ATP, 60 min at 30° C.; read-out: ALK2 EPK (IC50)
T1 sequence (Q04771 172-499): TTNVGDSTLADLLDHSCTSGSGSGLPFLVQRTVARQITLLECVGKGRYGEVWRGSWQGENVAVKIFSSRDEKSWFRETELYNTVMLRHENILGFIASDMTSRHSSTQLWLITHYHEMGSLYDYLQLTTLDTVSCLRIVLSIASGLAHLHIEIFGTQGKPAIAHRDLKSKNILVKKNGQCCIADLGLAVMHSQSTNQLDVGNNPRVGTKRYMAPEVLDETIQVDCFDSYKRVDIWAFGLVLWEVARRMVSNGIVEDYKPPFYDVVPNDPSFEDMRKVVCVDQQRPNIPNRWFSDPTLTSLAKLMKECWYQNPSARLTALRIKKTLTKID

ALK6 (aa168-495) = ALK6 (aa168-495) (Homo sapiens (Human), UniProt O00238); assay: Caliper biochemical peptide phosphorylation assay, ALK6; settings: 15 μm ATP, 60 min at 30° C.; read-out: ALK6 EPK (IC50)
Sequence of ALK6 (aa168-495) (O00238 168-495): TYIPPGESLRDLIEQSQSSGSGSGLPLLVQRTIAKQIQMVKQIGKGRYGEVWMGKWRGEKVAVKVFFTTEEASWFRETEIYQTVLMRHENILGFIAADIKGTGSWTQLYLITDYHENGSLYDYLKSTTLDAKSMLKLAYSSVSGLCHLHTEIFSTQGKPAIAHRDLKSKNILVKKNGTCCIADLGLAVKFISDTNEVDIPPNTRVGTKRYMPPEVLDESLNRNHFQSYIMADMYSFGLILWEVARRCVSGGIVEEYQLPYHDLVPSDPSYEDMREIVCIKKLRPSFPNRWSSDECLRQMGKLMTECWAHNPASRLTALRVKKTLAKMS

[3] = biological target: T1, wild-type ALK2 (aa172-499); assay: ADPGlo biochemical autophosphorylation assay, ALK2; settings: 15 μm ATP, 60 min at 32° C.
ALK5 (aa162-503) = ALK5 (aa162-503) (Homo sapiens (Human), UniProt P36897); assay: Caliper biochemical peptide phosphorylation assay, ALK5; settings: 15 μm ATP, 60 min at 30° C.; read-out: ALK5 EPK (IC50)
Sequence of ALK5 (aa162-503) (P36897 162-503): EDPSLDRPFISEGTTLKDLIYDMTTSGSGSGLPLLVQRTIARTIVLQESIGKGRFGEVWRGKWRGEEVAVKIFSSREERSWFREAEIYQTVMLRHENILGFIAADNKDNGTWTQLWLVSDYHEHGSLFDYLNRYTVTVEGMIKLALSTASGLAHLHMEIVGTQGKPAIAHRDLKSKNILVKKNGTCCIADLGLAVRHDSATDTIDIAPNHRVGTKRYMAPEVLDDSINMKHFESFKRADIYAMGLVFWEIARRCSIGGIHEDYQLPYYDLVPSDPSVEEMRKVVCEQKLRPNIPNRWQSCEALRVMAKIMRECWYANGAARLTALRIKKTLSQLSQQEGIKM

| IC50 [1] [nM] | IC50 (ALK3 (aa198-525)) [nM] | IC50 (ALK1 (aa166-493)) [nM] | IC50 [2] [nM] | IC50 (ALK6 (aa168-495)) [nM] | IC50 [3] [nM] | IC50 (ALK5 (aa162-503)) [nM] | SMILES |
| --- | --- | --- | --- | --- | --- | --- | --- |
| 50 | 1200 | 190 | 32 | 2500 | 13 | 2000 | C#CCN1C[C@@H]2C[C@]2(c2ccc(-c3cnc(N)c(C(=O)N[C@H]4CC[C@H](O)CC4)c3)cc2)C1 [Example 53, 2-amino-N-((1r,4S)-4-hydroxycyclohexyl)-5-(4-((1S,5R)-3-(prop-2-yn-1-yl)-3-azabicyclo[3.1.0]hexan-1-yl)phenyl)nicotinamide] |
| 395 | 920 | 140 | 33 | 3500 | 11 | 5300 | C#CCN1C[C@H]2C[C@@]2(c2ccc(-c3cnc(N)c(C(=O)N[C@H]4CC[C@H](O)CC4)c3)cc2)C1 [Example 54, 2-amino-N-((1r,4R)-4-hydroxycyclohexyl)-5-(4-((1R,5S)-3-(prop-2-yn-1-yl)-3-azabicyclo[3.1.0]hexan-1-yl)phenyl)nicotinamide] |
| 543 | 2440 | 627 | 30 | 2900 | 22 | 5030 | C[C@H](c1ccc(-c2cnc(N)c(C(=O)N[C@H]3CC[C@H](O)CC3)c2)c(Cl)c1)N1CC2(COC2)C1 [Example 55, 5-(4-((R)-1-(2-oxa-6-azaspiro[3.3]heptan-6-yl)ethyl)-2-chlorophenyl)-2-amino-N-((1r,4R)-4-hydroxycyclohexyl)nicotinamide] |
| 285 | 9900 | 930 | 30 | 10000 | 28 | 5800 | C[C@@H]1CCCN1Cc1ccc(-c2cnc(N)c(C(=O)N[C@H]3CC[C@](C)(O)CC3)c2)c(F)c1 [Example 56, 2-amino-5-(2-fluoro-4-(((R)-2-methylpyrrolidin-1-yl)methyl)phenyl)-N-((1r,4R)-4-hydroxy-4-methylcyclohexyl)nicotinamide] |
| 143 | 3720 | 663 | 32 | 8400 | 25 | 7550 | C[C@]1(O)CC[C@H](NC(=O)c2cc(-c3ccc([C@]45C[C@H]4CN(C4CCC(F)(F)CC4)C5)cc3)cnc2N)CC1 [Example 58, 2-amino-5-(4-((1S,5R)-3-(4,4-difluorocyclohexyl)-3-azabicyclo[3.1.0]hexan-1-yl)phenyl)-N-((1r,4S)-4-hydroxy-4-methylcyclohexyl)nicotinamide] |
| 405 | 2700 | 770 | 33 | 7700 | 24 | 9100 | C[C@H](c1ccc(-c2cnc(N)c(C(=O)N[C@H]3CC[C@](C)(O)CC3)c2)cc1)N1CC2(COC2)C1 [Example 59, 5-(4-((R)-1-(2-oxa-6-azaspiro[3.3]heptan-6-yl)ethyl)phenyl)-2-amino-N-((1r,4R)-4-hydroxy-4-methylcyclohexyl)nicotinamide] |
| 84 | 990 | 170 | 42 | 6300 | 11 | 6300 | CC#CCN1C[C@H]2C[C@@]2(c2ccc(-c3cnc(N)c(C(=O)N[C@H]4CC[C@H](O)CC4)c3)cc2)C1 [Example 60, 2-amino-5-(4-((1R,5S)-3-(but-2-yn-1-yl)-3-azabicyclo[3.1.0]hexan-1-yl)phenyl)-N-((1r,4R)-4-hydroxycyclohexyl)nicotinamide] |
| 2300 | 2100 | 940 | 35 | 20200 | 43 | 7200 | Nc1ncc(-c2ccc(N3CCCCC3)cc2)cc1C(=O)NC1CCCCC1 [Example 61, 2-amino-N-cyclohexyl-5-(4-(piperidin-1-yl)phenyl)nicotinamide] |
| 390 | 1800 | 940 | 57 | 3500 | 91 | 6700 | Nc1ncc(-c2ccc([C@]34C[C@H]3CN(C3COC3)C4)cc2)cc1C(=O)NC12CCC(O)(CC1)CC2 [Example 63, 2-amino-N-(4-hydroxybicyclo[2.2.2]octan-1-yl)-5-(4-((1S,5R)-3-(oxetan-3-yl)-3-azabicyclo[3.1.0]hexan-1-yl)phenyl)nicotinamide] |
| 380 | 2200 | 1000 | 63 | 3800 | 110 | 7500 | Nc1ncc(-c2ccc([C@@]34C[C@@H]3CN(C3COC3)C4)cc2)cc1C(=O)NC12CCC(O)(CC1)CC2 [Example 64, 2-amino-N-(4-hydroxybicyclo[2.2.2]octan-1-yl)-5-(4-((1R,5S)-3-(oxetan-3-yl)-3-azabicyclo[3.1.0]hexan-1-yl)phenyl)nicotinamide] |
| 415 | 2400 | 580 | 44 | 10000 | 82 | 1700 | CN1CCN(CCNC(=O)c2ccc(-c3cnc(N)c(C(=O)NC4CCCCC4)c3)cc2)CC1 [Example 65, 2-amino-N-cyclohexyl-5-(4-((2-(4-methylpiperazin-1-yl)ethyl)carbamoyl)phenyl)nicotinamide] |
| 910 | 1200 | 190 | 56 | 6200 | 15 | 10000 | Nc1ncc(-c2ccc([C@]34C[C@H]3CN(C(CF)CF)C4)cc2)cc1C(=O)N[C@H]1CC[C@H](O)CC1 [Example 66, 2-amino-5-(4-((1S,5R)-3-(1,3-difluoropropan-2-yl)-3-azabicyclo[3.1.0]hexan-1-yl)phenyl)-N-((1r,4S)-4-hydroxycyclohexyl)nicotinamide] |
| 1160 | 1900 | 180 | 50 | 8700 | 22 | 10000 | Nc1ncc(-c2ccc([C@]34C[C@H]3CN(CC(F)(F)F)C4)cc2)cc1C(=O)N[C@H]1CC[C@H](O)CC1 [Example 67, 2-amino-N-((1r,4S)-4-hydroxycyclohexyl)-5-(4-((1S,5R)-3-(2,2,2-trifluoroethyl)-3-azabicyclo[3.1.0]hexan-1-yl)phenyl)nicotinamide] |
| 950 | 8000 | 2500 | 49 | 10000 | 34 | 10000 | C[C@H](c1ccc(-c2cnc(N)c(C(=O)NC34CC5CC(CC(O)(C5)C3)C4)c2)cc1)N1CC2(COC2)C1 [Example 68, 5-(4-((R)-1-(2-oxa-6-azaspiro[3.3]heptan-6-yl)ethyl)phenyl)-2-amino-N-((1r,3R)-3-hydroxyadamantan-1-yl)nicotinamide] |
| 1100 | 3100 | 1100 | 52 | 9000 | 41 | 5200 | Nc1ncc(-c2ccc(C(=O)N3CCOCC3)cc2)cc1C(=O)NC1CCCCC1 [Example 69, 2-amino-N-cyclohexyl-5-(4-(morpholine-4-carbonyl)phenyl)nicotinamide] |
| 513 | 2850 | 305 | 68 | 8750 | 20 | 9400 | Nc1ncc(-c2ccc([C@@]34C[C@@H]3CN(CC3COC3)C4)cc2)cc1C(=O)N[C@H]1CC[C@H](O)CC1 [Example 70, 2-amino-N-((1r,4R)-4-hydroxycyclohexyl)-5-(4-((1R,5S)-3-(oxetan-3-ylmethyl)-3-azabicyclo[3.1.0]hexan-1-yl)phenyl)nicotinamide] |
| 86 | 2900 | 490 | 65 | 5800 | 22 | 3000 | CC(C)N1C[C@@H]2C[C@]2(c2ccc(-c3cnc(N)c(C(=O)N[C@H]4CC[C@@H](O)CC4)c3)cc2)C1 [Example 71, 2-amino-N-((1s,4R)-4-hydroxycyclohexyl)-5-(4-((1S,5R)-3-isopropyl-3-azabicyclo[3.1.0]hexan-1-yl)phenyl)nicotinamide] |
| 550 | 13200 | 2500 | 70 | 10000 | 64 | 10000 | C[C@@H]1CCCN1Cc1ccc(-c2cnc(N)c(C(=O)N[C@H]3CC[C@](C)(O)CC3)c2)c(F)c1F [Example 74, 2-amino-5-(2,3-difluoro-4-(((R)-2-methylpyrrolidin-1-yl)methyl)phenyl)-N-((1r,4R)-4-hydroxy-4-methylcyclohexyl)nicotinamide] |
| 330 | 1800 | 210 | 140 | 7700 | 11 | 4600 | COCCN1C[C@H]2C[C@@]2(c2ccc(-c3cnc(N)c(C(=O)N[C@H]4CC[C@H](O)CC4)c3)cc2)C1 [Example 75, 2-amino-N-((1r,4R)-4-hydroxycyclohexyl)-5-(4-((1R,5S)-3-(2-methoxyethyl)-3-azabicyclo[3.1.0]hexan-1-yl)phenyl)nicotinamide] |
